Measured values taken from US12611372B2, “Strain and use thereof” (LG HOUSEHOLD & HEALTH CARE LTD., priority 2021, dated 2026).
Each block holds one molecule with its values, some of them ahead of it.

What was measured:
B16f10 melanocytes = test: Melanin production inhibition; type: cell-based; details: treatment concentration 0.02%; 72 hours
Procedure: Samples were diluted in B16f10 melanocytes at each concentration, treated for 72 hours, and cultured, and then, the amount of melanin pigment present in melanocytes was quantified. The melanin production inhibitory rate was calculated in comparison to the total protein amount, and the values thereof were measured as percentage (%) based on the DMSO control (DMEM containing 0% serum) set to 100%.
In order to measure the degree of decrease in the amount of melanin pigment in the Saccharomyces cerevisiae KCTC14780BP fermented product and the fraction containing the yeast polypeptide, the inhibition rate of melanin production was compared upon treatment with the positive control group (Arbutin 200 ppm (Lim Y. J. et al., 2009, Arch Pharm Res.)), the Saccharomyces cerevisiae KCTC14780BP fermented product and the fraction containing the yeast polypeptide (Table 15).

[1] = molecular target: T1, TRPV1 (transient receptor potential vanilloid-1) (Homo sapiens, UniProt Q8NER1); test: TRPV1 activity, calcium influx detection assay in HEK 293T-TRPV1 cells; type: cell-based; details: untreated group 83.57
T1 construct: expressed in transfected cells; host or cells: HEK 293T-TRPV1 cells

Raw 264.7 cells = test: NO production inhibitory ability, LPS-treated cells, NO assay kit; type: cell-based; details: positive control, 20 μg/mL, LPS 1 μg/mL, 24 hours
Procedure: Raw 264.7 cells were diluted for each concentration, treated with 1 μg/mL of LPS, and cultured for 24 hours. The NO production inhibitory ability was evaluated as follows using a NO assay kit (Table 13).
The confirmation of skin soothing and inflammation improvement effects was performed in the same manner as in Example 6-1 (Table 14).

human keratinocyte HaCaT = test: Hyaluronic acid synthesis, Quantikine ELISA Hyaluronan; type: cell-based; details: positive control, 1 ppm, 72 hours
Procedure: Samples were treated with human keratinocyte HaCaT for 72 hours at each concentration. Hyaluronic acid synthesis was compared with the control group (DMEM treatment containing 0% serum) using Quantikine ELISA Hyaluronan from R&D Systems to quantify the moisturizing ability (Table 7).
The confirmation of hyaluronic acid synthesis enhancement effect was performed in the same manner as in Example 4-1 (Table 8).
The confirmation of hyaluronic acid synthesis enhancement effect was performed in the same manner as in Example 4-1 (Table 9).
The confirmation of hyaluronic acid synthesis enhancement effect was performed in the same manner as in Example 4-1 (Table 10).
The confirmation of hyaluronic acid synthesis enhancement effect was performed in the same manner as in Example 4-1 (Table 11).

[2] = DPPH free radical scavenging; type: biochemical; details: 0.15 mM DPPH, room temperature, 30 minutes, absorbance at 540 nm
human dermal fibroblast = test: Collagen synthesis rate, Procollagen Type I C-peptide (PIP) EIA kit; type: cell-based; details: positive control, 48 hours
Procedure: Samples were treated with human dermal fibroblast for 48 hours at each concentration. The collagen synthesis rate was measured using a Procollagen Type I C-peptide (PIP) EIA kit. The collagen synthesis efficacy of the samples was calculated and measured as values in comparison with the negative control group (DMEM containing 0% serum).
In order to confirm the collagen synthesis enhancement effect of the Saccharomyces cerevisiae KCTC14779BP fermented product, the collagen synthesis rate was compared for normal cells, and normal cells treated with TGF-β, Saccharomyces cerevisiae KCTC14779BP fermented product, and normal yeast (Saccharomyces cerevisiae KCTC7296) fermented product (Table 3).
The confirmation of collagen synthesis enhancement effect was performed in the same manner as in Example 3-1, and the collagen synthesis rate was compared for normal cells, and normal cells treated with TGF-β, Saccharomyces cerevisiae KCTC14780BP fermented product, and fraction containing the yeast polypeptide (Table 4).
The confirmation of collagen synthesis enhancement effect was performed in the same manner as in Example 3-1, and the collagen synthesis rate was compared for normal cells, and normal cells treated with TGF-β, Lactobacillus fructivorans KCTC14776BP fermented product, and normal Lactobacillus (Lactobacillus plantarum KCTC3108) fermented product (Table 5).
The confirmation of collagen synthesis enhancement effect was performed in the same manner as in Example 3-1, and the collagen synthesis rate was compared for normal cells, and normal cells treated with TGF-β, Bacillus paramycoides KCTC14777BP fermented product, and normal Bacillus (Bacillus megaterium KCTC3007) fermented product (Table 6).

loricrin (LOR) = test: Loricrin (LOR) gene expression in TNF-a-treated HaCaT cells, qPCR; type: cell-based, human; details: Control: TNF-a 10 pg/mL alone; untreated group = 1
Procedure: After treating HaCaT cells with TNF-a (10 pg/mL) for 3 hours, samples were diluted for each concentration, mixed with TNF-a-treated HaCaT cells, and cultured for 24 hours. The degree of increase in the expression of loricrin (LOR), a major component of the skin barrier, was quantified using qPCR (Table 18).

T1 sequence (Q8NER1 whole entry, species assumed): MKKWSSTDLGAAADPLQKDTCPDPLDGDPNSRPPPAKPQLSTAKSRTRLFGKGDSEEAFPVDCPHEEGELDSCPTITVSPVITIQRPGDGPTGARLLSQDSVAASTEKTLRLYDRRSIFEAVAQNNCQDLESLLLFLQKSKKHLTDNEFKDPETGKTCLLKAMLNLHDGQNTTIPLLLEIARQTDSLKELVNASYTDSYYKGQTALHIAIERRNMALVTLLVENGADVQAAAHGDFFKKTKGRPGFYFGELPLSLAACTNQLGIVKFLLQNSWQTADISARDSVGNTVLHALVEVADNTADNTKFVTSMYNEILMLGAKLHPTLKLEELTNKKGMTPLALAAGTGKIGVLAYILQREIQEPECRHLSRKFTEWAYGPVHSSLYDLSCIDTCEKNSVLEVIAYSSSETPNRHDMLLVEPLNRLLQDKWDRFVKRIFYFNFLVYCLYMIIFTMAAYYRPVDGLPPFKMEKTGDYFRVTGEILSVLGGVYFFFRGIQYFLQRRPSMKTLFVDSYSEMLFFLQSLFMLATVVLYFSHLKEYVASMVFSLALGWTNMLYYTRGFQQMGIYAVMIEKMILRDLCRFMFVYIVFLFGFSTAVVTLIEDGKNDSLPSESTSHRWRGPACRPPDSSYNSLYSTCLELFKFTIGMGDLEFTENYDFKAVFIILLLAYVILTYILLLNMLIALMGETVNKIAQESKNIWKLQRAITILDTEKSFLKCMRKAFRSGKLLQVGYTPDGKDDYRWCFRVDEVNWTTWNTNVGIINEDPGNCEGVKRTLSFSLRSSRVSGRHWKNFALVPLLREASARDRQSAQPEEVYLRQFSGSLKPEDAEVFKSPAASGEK

Molecule: OC[C@H]1O[C@@H](Oc2ccc(O)cc2)[C@H](O)[C@@H](O)[C@@H]1O [Arbutin]
Melanin Production Inhibition (%) (B16f10 melanocytes): 56.4%

TRPV1 Activity (RFU, relative fluorescent unit) ([1]; 10 μM, TRPV1 activity induction): 101.86 RFU
Molecule: COc1cc(CNC(=O)CCCC/C=C/C(C)C)ccc1O [Capsaicin]

Molecule: CNC(=N)NCCC[C@H](N)C(=O)O [L-NMMA]
NO production inhibitory ability (% of control) (Raw 264.7 cells; Table 13): 47.9 % of control
NO production inhibitory ability (% of control) (Raw 264.7 cells; Table 14): 47.9 % of control

Molecule: CC1=C(/C=C/C(C)=C/C=C/C(C)=C/C(=O)O)C(C)(C)CCC1 [Retinoic acid]
Hyaluronic Acid Synthesis Rate (% of control) (human keratinocyte HaCaT; Table 7): 13.6 % of control
Hyaluronic Acid Synthesis Rate (% of control) (human keratinocyte HaCaT; Table 8): 17.8 % of control
Hyaluronic Acid Synthesis Rate (% of control) (human keratinocyte HaCaT; Table 9): 27.6 % of control
Hyaluronic Acid Synthesis Rate (% of control) (human keratinocyte HaCaT; Table 10): 22.0 % of control
Hyaluronic Acid Synthesis Rate (% of control) (human keratinocyte HaCaT; Table 11): 15.4 % of control

IC 50 (%) [2]: 0.000606 ± 0.00006%
Molecule: O=C1O[C@H]([C@@H](O)CO)C(O)=C1O [Vitamin C]

TRPV1 Activity (RFU, relative fluorescent unit) ([1]; 3 μM, TRPV1 activity inhibition): 75.91 RFU
Molecule: Capsazepin

Molecule: TGF-β
Collagen Synthesis Rate (% of control) (human dermal fibroblast; Table 3, 10 ppb, vs negative control (DMEM 0% serum)): 27.55 % of control
Collagen Synthesis Rate (% of control) (human dermal fibroblast; Table 4, 10 ng/mL): 23.92 % of control
Collagen Synthesis Rate (% of control) (human dermal fibroblast; Table 5, 10 ppb): 24.6 % of control
Collagen Synthesis Rate (% of control) (human dermal fibroblast; Table 6, 10 ppb): 20.84 % of control

Molecule: TNF-a
LOR Gene Expression (Relative mRNA level, of control) (loricrin (LOR)): 0.39
